Data: patent publication US4965280A, “Antifungal carbinols” (E. I. Du Pont de Nemours and Company, priority 1989, dated 1990)

What was measured:
Assay in all cases: Test E
BLACK NIGHTSHAD = assay type: in vivo, Solanum nigrum
KOCHIA = assay type: in vivo, Kochia scoparia
SNTLS CHAMOMILE = assay type: in vivo, Matricaria indora
PERSN SPEEDWELL = assay type: in vivo, Veronica persica
REDROOT PIGWEED = assay type: in vivo, Amaranthus retroflexus
CTCHWD BEDSTRAW = assay type: in vivo, Galium aparine
WILD OATS = assay type: in vivo, Avena fatua
ITALN. RYEGRASS = assay type: in vivo, Lolium multiflorum
MUSTARD SPP. = assay type: in vivo, Brassica spp.
PARK WHEAT = assay type: in vivo, Triticum aestivum cv. Park

**Q.** `C=C(c1ccc(F)cc1)C(O)(Cn1cncn1)c1ccc(F)cc1F` (stereo not shown) [Example 4, 2-(2,4-Difluorophenyl)-3-(4-fluorophenyl)-1-(1H-1,2,4-triazol-1-yl)-3-buten-2-ol] was tested. Which plant response (BLACK NIGHTSHAD; POSTEMERGENCE 0064 GM/HA) did it give?
**A.** 10%

**Q.** And the plant response (BLACK NIGHTSHAD; POSTEMERGENCE 0125 GM/HA)?
**A.** 30%

**Q.** What about the plant response (BLACK NIGHTSHAD; POSTEMERGENCE 0250 GM/HA) of the same compound?
**A.** 70%

**Q.** And the plant response (BLACK NIGHTSHAD; POSTEMERGENCE 0500 GM/HA)?
**A.** 90%

**Q.** And the plant response (BLACK NIGHTSHAD; PREEMERGENCE 0500 GM/HA)?
**A.** 100%

**Q.** And the plant response (KOCHIA; POSTEMERGENCE 0064 GM/HA)?
**A.** 0%

**Q.** And the plant response (KOCHIA; POSTEMERGENCE 0125 GM/HA)?
**A.** 30%

**Q.** And the plant response (KOCHIA; POSTEMERGENCE 0250 GM/HA)?
**A.** 70%

**Q.** And the plant response (KOCHIA; POSTEMERGENCE 0500 GM/HA)?
**A.** 90%

**Q.** And the plant response (KOCHIA; PREEMERGENCE 0500 GM/HA)?
**A.** 100%

**Q.** What about the plant response (SNTLS CHAMOMILE; POSTEMERGENCE 0064 GM/HA) of the same compound?
**A.** 30%

**Q.** What about the plant response (SNTLS CHAMOMILE; POSTEMERGENCE 0125 GM/HA) of the same compound?
**A.** 50%

**Q.** And the plant response (SNTLS CHAMOMILE; POSTEMERGENCE 0250 GM/HA)?
**A.** 70%

**Q.** And the plant response (SNTLS CHAMOMILE; POSTEMERGENCE 0500 GM/HA)?
**A.** 85%

**Q.** What about the plant response (SNTLS CHAMOMILE; PREEMERGENCE 0500 GM/HA) of the same compound?
**A.** 100%

**Q.** And the plant response (PERSN SPEEDWELL; POSTEMERGENCE 0064 GM/HA)?
**A.** 20%

**Q.** And the plant response (PERSN SPEEDWELL; POSTEMERGENCE 0125 GM/HA)?
**A.** 70%

**Q.** And the plant response (PERSN SPEEDWELL; POSTEMERGENCE 0250 GM/HA)?
**A.** 100%

**Q.** What about the plant response (PERSN SPEEDWELL; POSTEMERGENCE 0500 GM/HA) of the same compound?
**A.** 100%

**Q.** What about the plant response (PERSN SPEEDWELL; PREEMERGENCE 0500 GM/HA) of the same compound?
**A.** 90%

**Q.** What about the plant response (REDROOT PIGWEED; POSTEMERGENCE 0064 GM/HA) of the same compound?
**A.** 20%

**Q.** And the plant response (REDROOT PIGWEED; POSTEMERGENCE 0125 GM/HA)?
**A.** 40%

**Q.** And the plant response (REDROOT PIGWEED; POSTEMERGENCE 0250 GM/HA)?
**A.** 90%

**Q.** And the plant response (REDROOT PIGWEED; POSTEMERGENCE 0500 GM/HA)?
**A.** 90%

**Q.** What about the plant response (REDROOT PIGWEED; PREEMERGENCE 0500 GM/HA) of the same compound?
**A.** 100%

**Q.** What about the plant response (CTCHWD BEDSTRAW; POSTEMERGENCE 0064 GM/HA) of the same compound?
**A.** 20%

**Q.** What about the plant response (CTCHWD BEDSTRAW; POSTEMERGENCE 0125 GM/HA) of the same compound?
**A.** 20%

**Q.** And the plant response (CTCHWD BEDSTRAW; POSTEMERGENCE 0250 GM/HA)?
**A.** 80%

**Q.** And the plant response (CTCHWD BEDSTRAW; POSTEMERGENCE 0500 GM/HA)?
**A.** 100%

**Q.** What about the plant response (CTCHWD BEDSTRAW; PREEMERGENCE 0500 GM/HA) of the same compound?
**A.** 100%

**Q.** And the plant response (WILD OATS; POSTEMERGENCE 0064 GM/HA)?
**A.** 0%

**Q.** And the plant response (WILD OATS; POSTEMERGENCE 0125 GM/HA)?
**A.** 0%

**Q.** And the plant response (WILD OATS; POSTEMERGENCE 0250 GM/HA)?
**A.** 0%

**Q.** What about the plant response (WILD OATS; POSTEMERGENCE 0500 GM/HA) of the same compound?
**A.** 30%

**Q.** What about the plant response (WILD OATS; PREEMERGENCE 0500 GM/HA) of the same compound?
**A.** 90%

**Q.** And the plant response (ITALN. RYEGRASS; POSTEMERGENCE 0064 GM/HA)?
**A.** 0%

**Q.** What about the plant response (ITALN. RYEGRASS; POSTEMERGENCE 0125 GM/HA) of the same compound?
**A.** 0%

**Q.** What about the plant response (ITALN. RYEGRASS; POSTEMERGENCE 0250 GM/HA) of the same compound?
**A.** 30%

**Q.** What about the plant response (ITALN. RYEGRASS; POSTEMERGENCE 0500 GM/HA) of the same compound?
**A.** 80%

**Q.** What about the plant response (ITALN. RYEGRASS; PREEMERGENCE 0500 GM/HA) of the same compound?
**A.** 70%

**Q.** And the plant response (MUSTARD SPP.; POSTEMERGENCE 0064 GM/HA)?
**A.** 20%

**Q.** What about the plant response (MUSTARD SPP.; POSTEMERGENCE 0125 GM/HA) of the same compound?
**A.** 40%

**Q.** What about the plant response (MUSTARD SPP.; POSTEMERGENCE 0250 GM/HA) of the same compound?
**A.** 40%

**Q.** What about the plant response (MUSTARD SPP.; POSTEMERGENCE 0500 GM/HA) of the same compound?
**A.** 80%

**Q.** What about the plant response (MUSTARD SPP.; PREEMERGENCE 0500 GM/HA) of the same compound?
**A.** 50%

**Q.** What about the plant response (PARK WHEAT; POSTEMERGENCE 0064 GM/HA) of the same compound?
**A.** 0%

**Q.** What about the plant response (PARK WHEAT; POSTEMERGENCE 0125 GM/HA) of the same compound?
**A.** 10%

**Q.** What about the plant response (PARK WHEAT; POSTEMERGENCE 0250 GM/HA) of the same compound?
**A.** 30%

**Q.** And the plant response (PARK WHEAT; POSTEMERGENCE 0500 GM/HA)?
**A.** 50%

**Q.** What about the plant response (PARK WHEAT; PREEMERGENCE 0500 GM/HA) of the same compound?
**A.** 80%

**Q.** Which results are given for `C=C(c1ccccc1)C(O)(Cn1cncn1)c1ccc(Cl)cc1` (stereo not shown) [Example 51, 2-(4-Chlorophenyl)-3-phenyl-1-(1H-1,2,4-triazol-1-yl)-3-buten-2-ol]?
**A.** plant response (BLACK NIGHTSHAD; POSTEMERGENCE 0064 GM/HA): 0%; plant response (BLACK NIGHTSHAD; POSTEMERGENCE 0125 GM/HA): 0%; plant response (BLACK NIGHTSHAD; POSTEMERGENCE 0250 GM/HA): 40%; plant response (BLACK NIGHTSHAD; POSTEMERGENCE 0500 GM/HA): 60%; plant response (BLACK NIGHTSHAD; PREEMERGENCE 0500 GM/HA): 100%; plant response (KOCHIA; POSTEMERGENCE 0064 GM/HA): 0%; plant response (KOCHIA; POSTEMERGENCE 0125 GM/HA): 0%; plant response (KOCHIA; POSTEMERGENCE 0250 GM/HA): 0%; plant response (KOCHIA; POSTEMERGENCE 0500 GM/HA): 0%; plant response (KOCHIA; PREEMERGENCE 0500 GM/HA): 70%; plant response (SNTLS CHAMOMILE; POSTEMERGENCE 0064 GM/HA): 0%; plant response (SNTLS CHAMOMILE; POSTEMERGENCE 0125 GM/HA): 20%; plant response (SNTLS CHAMOMILE; POSTEMERGENCE 0250 GM/HA): 40%; plant response (SNTLS CHAMOMILE; POSTEMERGENCE 0500 GM/HA): 60%; plant response (SNTLS CHAMOMILE; PREEMERGENCE 0500 GM/HA): 100%; plant response (PERSN SPEEDWELL; POSTEMERGENCE 0064 GM/HA): 0%; plant response (PERSN SPEEDWELL; POSTEMERGENCE 0125 GM/HA): 0%; plant response (PERSN SPEEDWELL; POSTEMERGENCE 0250 GM/HA): 20%; plant response (PERSN SPEEDWELL; POSTEMERGENCE 0500 GM/HA): 40%; plant response (PERSN SPEEDWELL; PREEMERGENCE 0500 GM/HA): 20%; plant response (REDROOT PIGWEED; POSTEMERGENCE 0064 GM/HA): 30%; plant response (REDROOT PIGWEED; POSTEMERGENCE 0125 GM/HA): 50%; plant response (REDROOT PIGWEED; POSTEMERGENCE 0250 GM/HA): 60%; plant response (REDROOT PIGWEED; POSTEMERGENCE 0500 GM/HA): 90%; plant response (REDROOT PIGWEED; PREEMERGENCE 0500 GM/HA): 70%; plant response (CTCHWD BEDSTRAW; POSTEMERGENCE 0064 GM/HA): 0%; plant response (CTCHWD BEDSTRAW; POSTEMERGENCE 0125 GM/HA): 0%; plant response (CTCHWD BEDSTRAW; POSTEMERGENCE 0250 GM/HA): 0%; plant response (CTCHWD BEDSTRAW; POSTEMERGENCE 0500 GM/HA): 50%; plant response (CTCHWD BEDSTRAW; PREEMERGENCE 0500 GM/HA): 0%; plant response (WILD OATS; POSTEMERGENCE 0064 GM/HA): 0%; plant response (WILD OATS; POSTEMERGENCE 0125 GM/HA): 0%; plant response (WILD OATS; POSTEMERGENCE 0250 GM/HA): 0%; plant response (WILD OATS; POSTEMERGENCE 0500 GM/HA): 0%; plant response (WILD OATS; PREEMERGENCE 0500 GM/HA): 20%; plant response (ITALN. RYEGRASS; POSTEMERGENCE 0064 GM/HA): 0%; plant response (ITALN. RYEGRASS; POSTEMERGENCE 0125 GM/HA): 20%; plant response (ITALN. RYEGRASS; POSTEMERGENCE 0250 GM/HA): 20%; plant response (ITALN. RYEGRASS; POSTEMERGENCE 0500 GM/HA): 0%; plant response (ITALN. RYEGRASS; PREEMERGENCE 0500 GM/HA): 0%; plant response (MUSTARD SPP.; POSTEMERGENCE 0064 GM/HA): 0%; plant response (MUSTARD SPP.; POSTEMERGENCE 0125 GM/HA): 30%; plant response (MUSTARD SPP.; POSTEMERGENCE 0250 GM/HA): 30%; plant response (MUSTARD SPP.; POSTEMERGENCE 0500 GM/HA): 30%; plant response (MUSTARD SPP.; PREEMERGENCE 0500 GM/HA): 0%; plant response (PARK WHEAT; POSTEMERGENCE 0064 GM/HA): 0%; plant response (PARK WHEAT; POSTEMERGENCE 0125 GM/HA): 0%; plant response (PARK WHEAT; POSTEMERGENCE 0250 GM/HA): 0%; plant response (PARK WHEAT; POSTEMERGENCE 0500 GM/HA): 0%; plant response (PARK WHEAT; PREEMERGENCE 0500 GM/HA): 0%
